Laboratory results as given in US8288087B2, “Use of melanoma inhibitory activity (MIA) protein as an early indicator for therapeutic response in melanoma” (Novartis AG, priority 2006, dated 2012).
“Also recorded” adds a separate entry of the source.

How the values were obtained:
Assay type in all cases: in vivo, mouse
[1] = system: A375M human melanoma xenograft; assay: Kinetics of plasma MIA and tumor volume in A375M tumor-bearing mice (Example 3)
Description: (§1) MIA ELISA Assay: Equal numbers of human melanoma and colorectal carcinoma cells (˜250,000 cells for each cell line) were seeded onto tissue culture plates and the culture medium for each cell line was collected 48 hr later. Levels of MIA in culture media or plasma were measured by a commercial single-step ELISA kit according to the manufacturer's protocol (Roche Diagnostics Corporation, Indianapolis, Ind.). MIA concentrations in test samples were calculated using a standard curve ranging from 3-37 ng/ml. When the MIA concentration exceeded the highest standard concentration, the samples were diluted 1:5 and assayed again to have the results fall within the linear range of the standard curve. Data were evaluated using the Student t-test (two-tailed distribution, two-sample unequal variance), using P≦0.05 as the level of significance.
(§2) An A375 human melanoma xenograft study was carried out with female athymic nu/nu mice (8-12 weeks old) purchased from Charles River Laboratories (Wilmington, Mass.). Approximately 2.5×10^6 cells were implanted subcutaneously (s.c.) into the hind flank region of mice. Plasma samples were collected when tumors reached an average size of 250 mm^3 (n=10) and stored at −80° C. prior to MIA analysis. Dosing typically began when tumors reached an average size of 250 mm^3. Caliper measurements were performed twice weekly to estimate tumor volume using the formula: (a×b^2)×0.5, where “a” is the largest diameter and “b” is the length perpendicular to the diameter.
Methods: The kinetics of MIA concentrations in plasma following drug treatment were investigated as follows. A375M tumor-bearing mice were dosed orally either with CHIR-265 (100 mg/kg), CHIR-258 (60 mg/kg) or vehicle (n=10/group). Plasma samples were collected before dosing was initiated, and again on day 3, 8 and 13. Tumor volumes were measured at the same time points, using methods described in EXAMPLE 2.

[2] = system: CHL-1 human melanoma xenograft; assay: CHL-1 human melanoma xenograft study, tumor volume and plasma MIA ELISA (Example 4)
Description: as §1
A CHL-1 human melanoma xenograft study was carried out with female athymic nu/nu mice (8-12 weeks old) purchased from Charles River Laboratories (Wilmington, Mass.). Approximately 5×10^6 tumor cells in Matrigel™ were implanted subcutaneously (s.c.) into the hind flank region of mice. Dosing began when tumors reached an average size of 200 mm^3. Caliper measurements were performed twice weekly to estimate tumor volume using the formula: (a×b^2)×0.5, where “a” is the largest diameter and “b” is the length perpendicular to the diameter. […]

[3] = system: A375M human melanoma xenograft; assay: A375M human melanoma xenograft study, tumor volume and plasma MIA ELISA (Example 2)
Description: as §1, §2
In a first experiment, A375M human melanoma tumor-bearing mice (n=5) were randomized and dosed orally with CHIR-265 at 100 mg/kg (n=5) or vehicle (n=5) once every other day. Tumor-bearing animals treated with PEG400 buffer alone were used as vehicle control. […] Plasma samples were collected 48 hours post the fourth dose (day 10) for MIA analysis by ELISA.

[4] = system: MEXF 276 human melanoma tumor explant xenograft; assay: MEXF 276 human melanoma tumor explant xenograft study, tumor volume and plasma MIA ELISA; conditions: for Tumor Volume: day 20, mean ± SE; for tumor growth inhibition: day 20
Description: as §1
(§3) An MEXF 276 human melanoma tumor explant xenograft study and an MEXF1341 human melanoma tumor explant xenograft study were carried out as follows. The MEXF 276 human melanoma tumor cells and the MEXF1341 human melanoma tumor explant cells were originally derived from surgical specimens isolated from different melanoma patients (obtained from Oncotest GmbH, Institute for Experimental Oncology, Frieburg, Germany) and propagated as xenografts in nude mice. After removal of tumors from donor mice, samples were cut into fragments (1-2 mm diameter) and placed in RPMI 1640 medium before subcutaneous implantation into recipient male NMRI nu/nu mice (6-8 weeks old). Dosing typically began when tumors reached an average size of 6-8 mm in diameter. Animals were maintained under clean-room conditions in sterile filter-top cages and received sterile rodent chow and water ad libitum.
In a second experiment, MEXF 276 human melanoma tumor-bearing mice were randomized and dosed orally with CHIR-265 (100 or 10 mg/kg) or sorafenib (100 mg/kg) n=4/group. The first day of dosing was designated as Day 0. As such, the dosing schedule for CHIR-265 was 10 mg/kg on Day 0, 2, 4, 6, 14, 16 and 20. For CHIR-265 the dosing schedule was 100 mg/kg on Day 0, 2, 14, 16 and 20. Finally, the dosing schedule for sorafenib and PEG400 vehicle was 100 mg/kg every day on Day 0-20. […] Plasma samples were collected 4 hr after the last dose on Day 20 and stored at −80° C. prior to MIA analysis. MIA plasma levels were determined by an ELISA assay carried out as described in EXAMPLE 1.

[5] = system: MEXF 1341 human melanoma tumor explant xenograft; assay: MEXF 1341 human melanoma tumor explant xenograft study, tumor volume and plasma MIA ELISA; conditions: for tumor growth inhibition, significance vs. vehicle: MEXF 1341 (text prints MEXF 276), P>0.08 v. vehicle; for tumor growth inhibition, significance vs. vehicle / Tumor Volume: day 20; for Tumor Volume: mean ± SE
Description: as §1, §3
In a third experiment, MEXF 1341 human melanoma tumor-bearing mice were randomized and dosed orally with CHIR-265 (100 or 10 mg/kg) or sorafenib (100 mg/kg) n=4/group. The first day of dosing was designated as Day 0. As such, the dosing schedule for CHIR-265 (10 mg/kg) was 10 mg/kg on Day 0, 2, 4, 6, 14, 16 and 20. For CHIR-265 (100 mg/kg) the dosing schedule was 100 mg/kg on Day 0, 2, 14, 16 and 20. Finally, the dosing schedule for sorafenib and PEG400 vehicle was 100 mg/kg every day on Day 0-20. […] Plasma samples were collected 4 hr after the last dose on Day 20 and stored at −80° C. prior to MIA analysis. MIA plasma levels were determined by an ELISA assay carried out as described in EXAMPLE 1.

Structure (SMILES): CN1CCN(c2ccc3[nH]c(-c4c(N)c5c(F)cccc5[nH]c4=O)nc3c2)CC1 [CHIR-258, 4-amino-5-fluoro-3-[5-(4-methylpiperazin-1-yl)-1H-benzimidazol-2-yl]quinolin-2(1H)-one]
- change in MIA plasma concentration vs. vehicle ([1]; CHIR-258 60 mg/kg oral, day 3, 60 mg/kg): statistically significant lower levels; also recorded: statistically significant decrease in MIA plasma concentration
- reduction in MIA levels compared to baseline ([1]; CHIR-258 60 mg/kg oral, day 13): 63%
- effect on tumor volume / tumor burden vs. vehicle ([1]; CHIR-258 60 mg/kg oral, from day 8, 60 mg/kg): tumor growth inhibition, however regressions were not observed; also recorded: tumor growth inhibition; also recorded: statistically significant reduction in tumor burden
- effect on tumor volume vs. vehicle ([2]; CHIR-258 30 mg/kg or 80 mg/kg oral once daily, by day 8, P<0.03): significant tumor growth inhibition
- plasma MIA levels ([2]; both CHIR-258 groups (30 and 80 mg/kg), day 8 and subsequent time points): not detectable

Structure (SMILES): Cn1c(Nc2ccc(C(F)(F)F)cc2)nc2cc(Oc3ccnc(-c4ncc(C(F)(F)F)[nH]4)c3)ccc21 [CHIR-265, {1-Methyl-5-[2-(5-trifluoromethyl-1H-imidazol-2-yl)-pyridin-4-yloxy]-1H-benzoimidazol-2-yl}-(4-trifluoromethyl-phenyl)-amine]
- tumor regression as compared to initial tumor volume (250 mm^3) ([3]; CHIR-265 100 mg/kg oral every other day, after four doses): ~50%
- tumor growth inhibition compared to vehicle treatment ([3]; CHIR-265 100 mg/kg oral every other day, day 10): 70%
- Tumor Volume ([3]; CHIR-265 100 mg/kg oral every other day, day 10, mean ± SE, 100 mg/kg): 133±14.1 mm^3
- vehicle median MIA concentration fold higher than CHIR-265 treated mice ([3]; CHIR-265 100 mg/kg, day 10, n=5/group): 17 fold
- MIA plasma levels ([3]; after four doses of CHIR-265 100 mg/kg, plasma 48 h post fourth dose (day 10)): ~4 ng/mL
- Tumor Volume ([4]; CHIR-265 100 mg/kg oral, 100 mg/kg): 19±2.9 mm^3
- Tumor Volume ([4]; CHIR-265 (10 mg/ml) per table head, 10 mg/kg in text, oral, 10 mg/kg): 58±15.2 mm^3
- tumor growth inhibition ([4]; CHIR-265 at both doses (100 and 10 mg/kg)): > 97%
- tumor growth inhibition, significance vs. vehicle [5]: did not cause significant tumor growth inhibition
- Tumor Volume ([5]; MEXF 1341, CHIR-265 100 mg/kg oral, 100 mg/kg): 575±214 mm^3
- Tumor Volume ([5]; MEXF 1341, CHIR-265 (10 mg/ml) per table head, 10 mg/kg in text, oral, 10 mg/kg): 1190±291 mm^3
- reduction in plasma MIA ([5]; MEXF 1341, both CHIR-265 treatments (100 and 10 mg/kg), Day 20, P<0.02): 2 fold
- MIA plasma concentration (median) ([1]; CHIR-265 100 mg/kg oral, day 3, baseline 27.8): 10.4 ng/mL
- reduction in MIA concentration vs. baseline ([1]; CHIR-265 100 mg/kg, day 3): 62%
- tumor regression ([1]; CHIR-265 100 mg/kg, day 3): 29%
- MIA plasma concentration ([1]; CHIR-265 100 mg/kg, day 13): undetectable

Structure (SMILES): CNC(=O)c1cc(Oc2ccc(NC(=O)Nc3ccc(Cl)c(C(F)(F)F)c3)cc2)ccn1 [Sorafenib, reference compound]
- tumor growth inhibition ([4]; sorafenib 100 mg/kg every day): 69%
- Tumor Volume ([4]; sorafenib 100 mg/kg oral every day): 887±196 mm^3
- median plasma MIA concentration ([4]; sorafenib 100 mg/kg, plasma 4 hr after last dose on Day 20): 28.9 ng/mL
- tumor growth inhibition, significance vs. vehicle [5]: did not cause significant tumor growth inhibition
- Tumor Volume ([5]; MEXF 1341, sorafenib 100 mg/kg oral every day): 1338±264 mm^3
- effect on plasma MIA levels ([5]; MEXF 1341, sorafenib 100 mg/kg, Day 20, P>0.17): reduced plasma MIA levels
